Among the test systems are A549; DMS-273; HCC 2998; HCT-116; HCT-15; HT-29; K562; LOX IMVI; OVCAR-3; SF-268; SF-295; SR; UACC-257; DU-145; Hs-578T; MCF7; MDA-N; NCI/ADR-RES; PC-3; T47D.
Holding throughout (experiment): inhibition of tumour cell growth, NCI panel, 48 h

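Tested at 5 concentrations; 48 h exposure; 96-well plates; endpoints linearly interpolated, else capped at highest concentration. GI50 is the concentration that inhibits growth by half.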 Active and inactive are the calls of the source. No stated cut-off is given here; in the data, active = GI50 up to about 1.1 µM and inactive = higher.

Regarding `Cc1cc(C)n(-c2ccnc3cc(Cl)ccc23)n1`, the GI50 is > 100 µM (inactive) with A549; > 100 µM (inactive) in the assay on DMS-273; > 100 µM (inactive) with HCC 2998; > 100 µM (inactive) in the assay on HCT-116; > 100 µM with HCT-15; > 100 µM (inactive) with HT-29. The GI50 with K562, in the assay with LOX IMVI, in the assay with OVCAR-3, in the assay with SF-268, with SF-295 and in the assay on SR was > 100 µM (inactive) throughout. The GI50 in the assay with UACC-257 is > 100 µM (inactive).
Take `Cc1csc(=S)n1OC(=O)NC1CCCCC1`: the GI50 in the assay on A549 was > 73.3 µM (inactive); in the assay with DMS-273, > 49.4 µM (inactive); with HCC 2998, > 100 µM (inactive); in the assay with HCT-116, > 58.2 µM (inactive); in the assay with HCT-15, > 100 µM; in the assay with HT-29, > 48.9 µM (inactive). Moreover, the GI50 in the assay on K562 was 31 µM (inactive); in the assay on LOX IMVI, 65.3 µM (inactive); in the assay on OVCAR-3, > 63.8 µM (inactive); in the assay with SF-268, > 87.1 µM (inactive); with SF-295 it was > 100 µM (inactive); with SR it was 12.1 µM (inactive). In addition, the GI50 in the assay on UACC-257 was > 60.1 µM (inactive).
`O=[As](O)(O)c1cc(/N=N/c2ccc(-c3ccc(/N=N/c4cc([As](=O)(O)O)c(O)cc4O)cc3)cc2)c(O)cc1O`: the GI50 with A549 was > 100 µM (inactive); in the assay with DMS-273, > 100 µM (inactive); in the assay on HCC 2998, > 100 µM (inactive); with HCT-116, > 100 µM (inactive); with HCT-15, 97.1 µM; in the assay with HT-29, > 95.1 µM (inactive). In addition, the GI50 in the assay with K562 is > 55.5 µM (inactive); with LOX IMVI, > 100 µM (inactive); with OVCAR-3 it was > 52.8 µM (inactive); in the assay with SF-268, > 100 µM (inactive); with SF-295 it was > 100 µM (inactive); with SR, > 100 µM (inactive). The GI50 in the assay on UACC-257 was > 100 µM (inactive).
On to `CCOc1ccc(NC2=NC(=O)C(CC(=O)Nc3ccccc3[N+](=O)[O-])S2)cc1` (stereo not drawn), for which the GI50 in the assay with A549 is > 100 µM (inactive); in the assay with DMS-273 it was > 100 µM (inactive); in the assay with HCC 2998, > 100 µM (inactive); in the assay on HCT-116, > 100 µM (inactive); with HCT-15, > 100 µM; in the assay on HT-29 it was > 100 µM (inactive). For the same molecule, the GI50 with K562, in the assay on LOX IMVI, with OVCAR-3, with SF-268, in the assay on SF-295 and in the assay with SR was > 100 µM (inactive) each time. Also, the GI50 in the assay with UACC-257 is > 100 µM (inactive).
Regarding `CCOC(=O)C(Cc1c[nH]c2cc([N+](=O)[O-])ccc12)NS(=O)(=O)c1ccc2ccccc2c1` (stereo not drawn), the GI50 is 30.6 µM (inactive) with A549; 17.5 µM (inactive) with DMS-273; 24.2 µM (inactive) in the assay with HCC 2998; 17.2 µM (inactive) in the assay with HCT-116; 18.7 µM with HCT-15; 17.2 µM (inactive) in the assay on HT-29. For the same molecule, the GI50 was 18.1 µM (inactive) in the assay on K562; 17.5 µM (inactive) in the assay with LOX IMVI; 16.7 µM (inactive) with OVCAR-3; 20.2 µM (inactive) in the assay on SF-268; 17.3 µM (inactive) in the assay with SF-295; 17.5 µM (inactive) with SR. For the same molecule, the GI50 in the assay with UACC-257 is 15.3 µM (inactive).
On to `COc1cccc2c1C(=O)c1c(O)c3c(c(O)c1C2=O)C[C@@](O)(C(C)=O)C[C@@H]3OC1CC(N(Cc2ccccc2)Cc2ccccc2)C(O)C(C)O1` (stereo partly drawn), for which the GI50 in the assay with A549 was 4.55 µM (inactive); in the assay with DMS-273 it was 3.78 µM (inactive); in the assay with DU-145, 14.1 µM (inactive); in the assay with HCC 2998, 29.4 µM (inactive); with HCT-116, 1.84 µM (inactive); with HCT-15 it was 4.95 µM. The GI50 in the assay on HT-29 was 0.474 µM (active); in the assay on Hs-578T, 16.9 µM (inactive); in the assay with K562, 3.64 µM (inactive); with LOX IMVI, 5 µM (inactive); in the assay on MCF7 it was 12.4 µM (inactive); in the assay on MDA-N, 11.4 µM (inactive). For the same molecule, the GI50 with NCI/ADR-RES is 10.3 µM (inactive); in the assay on OVCAR-3, 22.8 µM (inactive); with PC-3, 6.61 µM (inactive); in the assay with SF-268, 14.2 µM (inactive); with SF-295, 13.6 µM (inactive); with SR, 0.101 µM (active). The GI50 in the assay on T47D is 11.9 µM (inactive); in the assay with UACC-257 it was 26.4 µM (inactive).
Regarding `COC(=O)C1=C(C)N(NC(=O)c2cccc(Cl)c2)C(C)(O)C12CCOC2=O` (stereo not drawn), the GI50 is > 100 µM (inactive) with A549; > 100 µM (inactive) in the assay on DMS-273; > 100 µM (inactive) in the assay on HCC 2998; > 100 µM (inactive) in the assay with HCT-116; > 100 µM with HCT-15; > 100 µM (inactive) in the assay on HT-29. Also, the GI50 in the assay on K562, with LOX IMVI, in the assay on OVCAR-3, in the assay on SF-268, in the assay with SF-295 and in the assay on SR was > 100 µM (inactive) each time. In addition, the GI50 in the assay with UACC-257 was > 100 µM (inactive).
With `N#CC(C#N)=C(N)/C(C#N)=C/c1ccc2[nH]ccc2c1`, the GI50 was > 100 µM (inactive) in the assay on A549; > 100 µM (inactive) in the assay on DMS-273; > 100 µM (inactive) in the assay on DU-145; > 100 µM (inactive) with HCC 2998; > 100 µM (inactive) in the assay on HCT-116; > 100 µM with HCT-15. For the same molecule, the GI50 in the assay with HT-29, with Hs-578T, in the assay on K562, with LOX IMVI, with MCF7 and in the assay with MDA-N was > 100 µM (inactive) each time. The GI50 with NCI/ADR-RES, with OVCAR-3, in the assay on PC-3, in the assay on SF-268, in the assay with SF-295 and in the assay with SR was > 100 µM (inactive) throughout. In addition, the GI50 with T47D and in the assay with UACC-257 was > 100 µM (inactive) throughout.

The record behind these values is ChEMBL document CHEMBL1201862, “PubChem BioAssay data set” (2004).
